Measured values as given in the supplement of paper PMC11579375.

What was measured:
Assay in all cases: area under the viability dose-response curve (AUC) (AUC (arbitrary units, max 500 = no viability loss)); higher = less sensitive (higher viability)
Settings in all cases: exposure time: 120 h; concentration range: 0.1 nM - 10 µM, 6 doses
10F2 = test system: 10F2 (fetal-II hepatoblastoma organoid with high liver markers)
Procedure: (§1)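 Patient-derived hepatoblastoma tumor organoids (about 50 organoids per well, 384-well plates, medium with 5% BME) were treated with the PMC pediatric cancer drug library. Each drug was tested in duplicate at 6 concentrations (0.1 nM to 10 µM, 10-fold steps).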

135F2 = test system: 135F2 (fetal-II hepatoblastoma organoid with high liver markers)
Procedure: as §1

13E = test system: 13E (embryonal-type hepatoblastoma organoid)
Procedure: as §1

13F2 = test system: 13F2 (fetal-II hepatoblastoma organoid with high liver markers)
Procedure: as §1

17E = test system: 17E (embryonal-type hepatoblastoma organoid)
Procedure: as §1

17F1 = test system: 17F1 (fetal-I hepatoblastoma organoid with intermediate liver markers)
Procedure: as §1

27F1 = test system: 27F1 (fetal-I hepatoblastoma organoid with intermediate liver markers)
Procedure: as §1

3E = test system: 3E (embryonal-type hepatoblastoma organoid)
Procedure: as §1

8F1 = test system: 8F1 (fetal-I hepatoblastoma organoid with intermediate liver markers)
Procedure: as §1

96F1 = test system: 96F1 (fetal-I hepatoblastoma organoid with intermediate liver markers)
Procedure: as §1

22E = test system: 22E (embryonal-type hepatoblastoma organoid)
Procedure: as §1

| SMILES | area under the viability dose-response curve (10F2) | area under the viability dose-response curve (135F2) | area under the viability dose-response curve (13E) | area under the viability dose-response curve (13F2) | area under the viability dose-response curve (17E) | area under the viability dose-response curve (17F1) | area under the viability dose-response curve (27F1) | area under the viability dose-response curve (3E) | area under the viability dose-response curve (8F1) | area under the viability dose-response curve (96F1) | area under the viability dose-response curve (22E) |
| --- | --- | --- | --- | --- | --- | --- | --- | --- | --- | --- | --- |
| NC(=O)c1cccc2cn(-c3ccc([C@@H]4CCCNC4)cc3)nc12 [Niraparib] | 459 | 458 | 472 | 455 | 495 | 490 | 478 | 461 | > 500 | 492 | – |
| CC(=O)[C@]1(O)Cc2c(O)c3c(c(O)c2[C@@H](O[C@H]2C[C@H](N)[C@H](O)[C@H](C)O2)C1)C(=O)c1ccccc1C3=O [Idarubicin] | – | 143 | – | – | – | – | 273 | 234 | 373 | 215 | 313 |
| O=P(O)(NCCCl)NCCCl [Palifosfamide (Ifosfamide)] | 474 | – | 493 | 498 | 473 | 477 | – | – | – | – | – |
| O=C(/C=C\n1cnc(-c2cc(C(F)(F)F)cc(C(F)(F)F)c2)n1)NNc1cnccn1 [Selinexor] | 360 | 378 | 345 | 319 | 387 | 443 | 415 | 349 | 489 | 395 | – |
| O=C(O)C(=O)O.[NH-][C@@H]1CCCC[C@H]1[NH-].[Pt+2] [Oxaliplatin] | 457 | – | – | 488 | > 500 | > 500 | 481 | 490 | 486 | – | > 500 |
| Cc1c(Cl)ccc2c1N=C/C2=C\c1[nH]c(=O)n(C(C(=O)NC(CO)CO)c2ccc(F)c(F)c2)c1O (configuration not stated) [RO-5963] | – | 459 | – | – | – | – | – | – | – | 446 | 449 |
| C[C@@H]1C[C@H](C)CN(S(=O)(=O)c2ccc3c(c2)C(=NO)c2cc(S(=O)(=O)N4C[C@H](C)C[C@H](C)C4)ccc2C3=NO)C1 [Tegavivint] | – | – | – | – | – | – | – | 236 | 338 | – | – |
| N#CC1(c2ccc(NC(=O)c3cccnc3NCc3ccncc3)cc2)CCCC1 [Apatinib] | 490 | 470 | 497 | 484 | 476 | – | > 500 | 491 | 498 | 481 | 438 |
| CC(C)n1c(=O)n(C)c2cnc3cc(F)c(-c4ccc(OCCCN5CCCCC5)nc4)cc3c21 [AZD1390] | – | 440 | – | – | – | – | > 500 | 491 | 486 | 471 | > 500 |
| N#Cc1c(Oc2ccc(F)c(NC(=O)Cc3cccc(C(F)(F)F)c3)c2)ccc2nc(NC(=O)C3CC3)sc12 [TAK632] | – | 393 | – | – | – | – | 467 | 472 | 478 | 417 | 455 |
| COc1c(OCCCN2CCOCC2)ccc2c1N=C(NC(=O)c1cnc(N)nc1)N1CCN=C21 [Copanlisib] | – | 315 | – | – | – | – | 485 | > 500 | 390 | 352 | 300 |
| O=c1[nH]c(=O)n([C@@H]2O[C@H](CO)[C@@H](O)[C@H]2O)cc1F [5-Fluorouridine] | – | 303 | – | – | – | – | 364 | 319 | 447 | 333 | 420 |
| COc1cc2c(cc1O)CCN[C@]21CS[C@@H]2c3c(OC(C)=O)c(C)c4c(c3[C@H](COC1=O)N1[C@@H]2[C@H]2c3c(cc(C)c(OC)c3O)C[C@@H]([C@@H]1O)N2C)OCO4 [Trabectedin] | – | 57.9 | – | – | – | – | 117 | 24.1 | 144 | 84.9 | 133 |
| CNC(=O)c1ccccc1Sc1ccc2c(/C=C/c3ccccn3)n[nH]c2c1 [Axitinib] | 411 | 463 | 427 | 457 | 438 | 499 | 478 | 421 | 495 | 480 | – |
| COc1cc2nc(C)nc(N[C@H](C)c3cc(N)cc(C(F)(F)F)c3)c2cc1O[C@H]1CCOC1 [BI-3406] | – | 472 | – | – | – | – | 481 | > 500 | > 500 | 413 | – |
| O=C(NC[C@H](O)CO)c1ccncc1Nc1ccc(I)cc1F [Pimasertib] | – | 393 | – | – | – | – | 457 | 456 | > 500 | 467 | 445 |
| NC(=O)/C(=C/n1cnc(-c2cc(C(F)(F)F)cc(C(F)(F)F)c2)n1)c1cncnc1 [Eltanexor] | – | 371 | – | – | – | – | 429 | 345 | 469 | 406 | – |
| CN(C)CCNC(=O)c1cccn2c(=O)c3cc4ccccc4cc3nc12 [BMH-21] | – | 416 | – | – | – | – | 434 | 430 | 408 | 445 | 466 |
| O=P1(N(CCCl)CCCl)NC(OO)CCO1 (configuration not stated) [4-Hydroperoxy cyclophosphamide (Cyclophosphamide)] | 465 | – | > 500 | > 500 | > 500 | > 500 | – | – | – | – | – |
| C/C=C1\NC(=O)[C@H]2CSSCC/C=C/[C@H](CC(=O)N[C@H](C(C)C)C(=O)N2)OC(=O)[C@H](C(C)C)NC1=O [Romidepsin] | 141 | 137 | 123 | 143 | 104 | 158 | 165 | 87.9 | 145 | 54.5 | – |
| CC(C)(O)c1cc(Nc2cc(Oc3cn(C4CC4)nc3C3CCOCC3)ccn2)ccn1 | – | > 500 | – | – | – | – | > 500 | > 500 | 499 | > 500 | – |
| CO[C@H]1C[C@@H]2CC[C@@H](C)[C@@](O)(O2)C(=O)C(=O)N2CCCC[C@H]2C(=O)O[C@H]([C@H](C)C[C@@H]2CC[C@@H](O)[C@H](OC)C2)CC(=O)[C@H](C)/C=C(\C)[C@@H](O)[C@@H](OC)C(=O)[C@H](C)C[C@H](C)/C=C/C=C/C=C/1C [Sirolimus] | 391 | 464 | 389 | 319 | 257 | > 500 | > 500 | 249 | 476 | > 500 | – |
| O=NN(CCCl)C(=O)NC1CCCCC1 [Lomustine] | – | 487 | – | – | – | – | > 500 | 446 | > 500 | 470 | 455 |
